From paper PMC12040169 (PLOS Biology, 2025)

experiment: in vitro; settings: human, hela cells, % viability

Point of comparison: `O=S(=O)(c1ccccc1)c1cn2ccnc2c(N2CCNCC2)n1` [CBK200021T], viability at 28.5 h, 10 µM 98.3%. Against it:
- CCNC(=O)Nc1ccccc1C(=O)NC1CCCCC1 [CBK175266] — lower, 89.6%
- Cc1csc(NC(=O)C2CC(=O)N(C3CCCC3)C2)n1 (centres unmarked) [CBK175501] — higher, 107%
- Cc1cnc(NC(=O)C2CC(=O)N(Cc3cccs3)C2)s1 (centres unmarked) [CBK175531] — lower, 90.9%
- CC(C)(C)c1csc(NC(=O)C2CC(=O)N(C3CCCC3)C2)n1 (centres unmarked) [CBK175544] — higher, 105%
- O=C(Nc1ncc(Cl)s1)C1CC(=O)N(C2CC2)C1 (centres unmarked) [CBK175551] — higher, 102%
- COCc1ccc(Nc2ccccc2S(=O)(=O)c2ccccc2)cc1OCC1CCN(C(=O)OC(C)(C)C)CC1 [CBK175577] — lower, 94.6%
- Cn1c(COc2cncc(Cl)n2)cc2ccccc21 [CBK176002] — lower, 89.9%
- Clc1cncc(OCCc2c[nH]c3ccccc23)n1 [CBK176027] — lower, 65.2%
- Clc1ccc(OCCOc2ccccc2)nn1 [CBK176034] — lower, 86.7%
- O=C(CSc1ccc2ccccc2n1)Nc1ccnc2ccccc12 [CBK176848] — lower, 78.1%
- COc1ncccc1-c1cccnc1-n1ccnc1 [CBK176872] — lower, 92.6%
- CSc1cccc(-c2cnccc2-n2ccnc2)c1 [CBK177155] — lower, 92.5%
- COc1cccc(COc2cncc(N3CCNCC3)n2)c1OC [CBK200003] — higher, 98.6%
- CN(C)c1cccc(COc2cncc(N3CCNCC3)n2)c1 [CBK200004] — lower, 82.1%
- COc1cccc(OCCOc2nsnc2N2CCNCC2)c1 [CBK200007] — higher, 110%
- Cc1ccc(S(=O)(=O)N(C)c2ccnc(N3CCNCC3)n2)cc1 [CBK200009] — higher, 107%
- CCN1CCN(c2ccc(NS(=O)(=O)c3ccccc3)c3ccccc23)CC1 [CBK200011C] — lower, 88.3%
- COc1ccccc1NS(=O)(=O)c1ccc(N2C[C@@H](C)N[C@@H](C)C2)c2ccccc12 [CBK200012C] — lower, 85.3%
- CN1CCN(c2nc(NS(=O)(=O)c3cccc(C(F)(F)F)c3)cc3ccccc23)CC1 [CBK200013C] — higher, 98.6%
- O=S(=O)(Nc1ccc(N2CCNCC2)c2ccccc12)c1ccc(Br)cc1F [CBK200014C] — lower, 95.4%
- O=S(=O)(c1ccc(C(F)(F)F)cc1)c1ccc2nccc(N3CCNCC3)c2c1 [CBK200016C] — lower, 91.2%
- CN1CCN(c2ccc3ccn(S(=O)(=O)c4ccccc4Br)c3n2)CC1 [CBK200019C] — lower, 92.5%
- O=S(=O)(Nc1cc(O[C@@H]2CCNC2)c2occc2c1)c1ccccc1Br [CBK200020C] — lower, 89.6%
- O=C(O)c1ccc(NS(=O)(=O)c2cccc([N+](=O)[O-])c2)cc1O [CBK200022] — lower, 84.8%
- CC(C)(C)OC(=O)Nc1cc(Cl)ccc1C(=O)O [CBK200024] — higher, 103%
- O=S(=O)(Nc1nc(-c2c(F)cccc2Cl)cs1)c1cc(Cl)c(Cl)s1 [CBK200025] — lower, 92.8%
- Cc1cc(Br)ccc1S(=O)(=O)Nc1nc(-c2c(F)cccc2Cl)cs1 [CBK200026] — lower, 95.6%
- CCOC(=O)Cc1csc(NS(=O)(=O)c2ccc(Br)cc2C)n1 [CBK200027] — lower, 96.2%
- O=S(=O)(Nc1nc(-c2ccccc2Cl)cs1)c1sc(Cl)cc1Br [CBK200028] — higher, 103%
- O=S(=O)(Nc1nc(-c2sccc2Cl)cs1)c1cc(Br)c(Cl)s1 [CBK200030] — higher, 107%
- COc1ccc(F)cc1-c1ccc(S(=O)(=O)Nc2nc(CC(=O)N3CCOCC3)cs2)cc1 [CBK200031] — lower, 88%
- O=C(Cc1csc(NS(=O)(=O)c2ccc(-c3cccc([N+](=O)[O-])c3)cc2)n1)N1CCOCC1 [CBK200032] — higher, 110%
- Cc1cc(Cl)cc(Cl)c1S(=O)(=O)Nc1nc(-c2cccnc2)cs1 [CBK200035] — higher, 105%
- C=CCN(C(=S)NCc1ccc2c(c1)OCO2)C1CCCCC1 [CBK200037] — lower, 97.9%
